Read-outs that look alike come from different tables or passages of the source.

The text below walks through data of US5438135A, “Water-soluble tetraazaporphins and fluorochrome for labeling” (Hitachi Chemical Company, priority 1991, dated 1995).

Data set [1] deals with anti-morphine monoclonal antibody. The class given is binding. How it is done:
For morphine, aminomorphine and the above-mentioned fluorochrome-labeled morphines, relative immuno-affinity for anti-morphine monoclonal antibody was measured using a competitive reaction in which they competed with tritium-labeled morphine.

In a further data set the test system is Human β-globin gene. Put plainly: Detection of β-globin gene in human DNA by PCR with labeled primers, fluorescence intensity of eluate. Conditions: Triton X-100, laser 680 nm. As to the method:
Human β-globin gene was detected by a gene detection method using the PCR (Polymorase Chain Reaction) method.
Twenty cycles of gene amplification was carried out (the total volume of solution: 100 μl) according to the protocol of Perkin-Elmer-Cetus Corporation by using human placental DNA (1 μg), each of the labeled primers, i.e., illustrative compound No.-[…], synthesized in the manner described above (300 ng), HO-[…] (300 ng), a nonionic surfactant, and TaqDNA polymerase (Perkin-Elmer-Cetus Corporation).
Human placental DNA (1 μg), the same illustrative compound No.-[…] as in sample 1 (300 ng), HO-[…] (300 ng) and a nonionic surfactant were added to a reaction solution containing no TaqDNA polymerase which had been prepared according to the protocol of Perkin-Elmer-Cetus Corporation (the total volume of the solution: 100 μl). […]
After washing with buffer solution A (500 μl) and buffer solution A containing 5% ethanol (500 μl), elution was carried out using buffer solution A containing 10% ethanol (500 μl). The pH of the eluate was adjusted to about 8, and fluorescence intensity was measured by means of a photodiode array by using a semiconductor laser as an exciting light source. […]

Data set [2] relates to DNA having a known base sequence. Put plainly: Analysis of the base sequence of DNA (Sanger reaction with labeled primers, DNA sequencer equipped with a semiconductor laser). To be noted: Triton X-100; semiconductor laser 680 nm. As to the method: A DNA having a known base sequence was used as a sample. Sanger reaction was carried out for the 4 kinds of bases using each of the labeled primers synthesized in Examples 19 to 25 or primers having a tetraazaporphin attached thereto through a linker synthesized in the same manner as in Examples 19 to 25. The DNA fragments thus obtained were separated by electrophoresis in different lanes for the 4 reaction systems, respectively, and analyzed by means of a DNA sequencer equipped with a semiconductor laser. The reaction systems contained a nonionic surfactant as an addition if necessary.
Each of the phthalocyanines disclosed in International Application Number PCT/US89/03807 was attached to the oligonucleotide primer obtained in Example 18, according to the methods of grafted patents and the methods described in Examples 19 to 25 of this invention. Using each of the phthalocyanine-attached oligonucleotides thus obtained, the base sequence of DNA was analyzed in the same manner as in Example 26.

Data set [3] is described as follows: Measurement of fluorescence quantum yield (relative quantum yield method). The data set is classed as physicochemical. To be noted: Methanol. As to the method: For the tetraazaporphins obtained in Examples 1 to 11 and tetraaxzaporphins of this invention obtained in the same manner as in Examples 1 to 11, fluorescence quantum yield was measured according to the method for measuring relative quantum yield described in a reference [J. Photochem. Photobiol, A. Chemistry, vol. 45, p. 117-121 (1988)] using 1,1',3,3,3',3'-hexamethylindotricarbocyanine perchlorate or oxazine-720 as a standard substance in the near infrared region. As is clear from Tables 10 to 12, all of the fluorochromes for labeling of this invention show a sufficient fluorescence quantum yield.

For the compound “3-(4-aminobutyl)morphine [Aminomorphine]”, the Relative affinity in data set [1] was 1. As to `CN1CC[C@]23c4c5ccc(O)c4O[C@H]2[C@@H](O)C=C[C@H]3[C@H]1C5` [Morphine], the Relative affinity in data set [1] (relative to morphine, competitive reaction with tritium-labeled morphine) was 1.

For the compound “Tetraazaporphin-labeled primer 62: oligonucleotide primer 5'-GTTTCCCAGTCACGAC-3' labeled with illustrative compound No. 62 (labeled with tetraazaporphin compound No. 62, position not given here)”, the “Relative intensity Sample 1” value with Human β-globin gene (Sample 1 (with TaqDNA polymerase, 20 cycles)) is 6. Besides, the “Relative intensity Sample 2” value in the data set on Human β-globin gene (Sample 2 (no TaqDNA polymerase)) was determined as 134. For the same compound, in data set [2], the “Number of bases of DNA” value turned out to be 350 and the Precision is 99.7%. “sodium bis(tributylsiloxy)silicon-tetraphenylthionaphthalocyanine octacarboxylate [Illustrative compound No. 1]”: the Fluorescence quantum yield in data set [3] (excitation wavelength 700 nm) is listed as 0.33. The same measure, in the same setting: to “sodium bis(tributylsiloxy)silicon-tetraphenylthionaphthalocyaninesulfonate [Illustrative compound No. 6]” belongs 0.30. Turning to “sodium bis(tributylsiloxy)silicon-tetraphenylthioquinolocyanineoctacarboxylate [Illustrative compound No. 21]”, the Fluorescence quantum yield in data set [3] (excitation wavelength 650 nm) amounted to 0.52. For “sodium bis(trihydroxyneopentoxy)silicon-tetraphenylthionaphthalocyanineoctacarboxylate [Illustrative compound No. 11]”, the Fluorescence quantum yield in data set [3] (excitation wavelength 700 nm) was determined as 0.34. On the same count and under the same terms, as for “sodium bis(tripropylsiloxy)silicon-tetraethylthionaphthalocyaninetetracarboxylate [Illustrative compound No. 16]”, the figure is 0.32.
